In the supplement of paper PMC10307832:

Columns and labels:
Assay in all cases: relative viability (nuclei count vs DMSO), 5 days (fraction); higher = more cells survive
[1] = compound: C1=CC=C(C(=C1)C2=CC=C(C=C2)C3=CSC4=C3C(=C(C(=O)N4)C#N)O)O + CC(=O)Nc1cccc(-n2c(=O)n(C3CC3)c(=O)c3c(Nc4ccc(I)cc4F)n(C)c(=O)c(C)c32)c1 [Trametinib] (partner 0.02 µM)
Outline: (§1)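 Values are medians from duplicate plates. Each reflects relative viability, defined as the nuclei count of treated wells over that of vehicle wells. Lung cancer cell lines in 1536-well plates were pin-tool dosed one day after seeding with one drug alone or with a fixed anchor-drug dose plus five library-drug doses (not always all listed) in √10 steps, then fixed, stained and imaged at 4× after 5 days.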

[2] = compound: O=C(CCCCCCNC(=O)c1cnc(N(c2ccccc2)c2ccccc2)nc1)NO [Ricolinostat] + C[C@]1(O)C[C@@H](c2nc(-c3ccc4ccc(-c5ccccc5)nc4c3)c3c(N)nccn32)C1 [Linsitinib] (partner 1 µM)
Outline: as §1

[3] = compound: C1=CC=C(C(=C1)C2=CC=C(C=C2)C3=CSC4=C3C(=C(C(=O)N4)C#N)O)O + COc1cc2c(Oc3ccc(NC(=O)C4(C(=O)Nc5ccc(F)cc5)CC4)cc3F)ccnc2cc1OCCCN1CCOCC1 [Foretinib] (partner 0.25 µM)
Outline: as §1

[4] = compound: C1=CC=C(C(=C1)C2=CC=C(C=C2)C3=CSC4=C3C(=C(C(=O)N4)C#N)O)O + COc1cccc2cc(-c3nc([C@H]4CC[C@H](C(=O)O)CC4)n4ncnc(N)c34)[nH]c12 [OSI-027] (partner 0.5 µM)
Outline: as §1

Cell Line	relative viability ([1]; first compound 0.08 µM)	relative viability ([1]; first compound 0.253 µM)	relative viability ([1]; first compound 0.8 µM)	relative viability ([1]; first compound 2.53 µM)	relative viability ([1]; first compound 8 µM)	relative viability ([2]; first compound 0.08 µM)	relative viability ([2]; first compound 0.253 µM)	relative viability ([2]; first compound 0.8 µM)	relative viability ([2]; first compound 2.53 µM)	relative viability ([3]; first compound 0.08 µM)	relative viability ([3]; first compound 0.253 µM)	relative viability ([3]; first compound 0.8 µM)	relative viability ([3]; first compound 2.53 µM)	relative viability ([3]; first compound 8 µM)	relative viability ([4]; first compound 0.08 µM)	relative viability ([4]; first compound 0.253 µM)	relative viability ([4]; first compound 0.8 µM)	relative viability ([4]; first compound 2.53 µM)	relative viability ([4]; first compound 8 µM)
A-427	0.688	0.842	0.772	0.746	0.858	0.958	1.07	1.01	0.875	1.16	1.18	1.19	1.1	1.18	0.363	0.505	0.514	0.432	0.452
NCI-H2228	0.342	0.459	0.544	0.458	0.465	0.455	0.451	0.722	0.814	0.764	0.871	0.96	0.847	0.588	0.6	0.785	0.576	0.491	0.372
EMC-BAC-2	0.942		0.889	0.892	0.913	0.731	0.78	0.832	0.885	1.07	1.1	0.989	0.963	0.896	0.41	0.411	0.312	0.355	0.357
NCI-H2405	0.55		0.639	0.601	0.574	0.515	0.93	1.05	1.1	1.05	1.04	1.01	1.01	0.983	0.648	0.656	0.607	0.679	0.65
NCI-H1993	0.479	0.502	0.495	0.565	0.542	0.696	0.772	0.665	0.778	0.67	0.52	0.765	0.76	0.723	0.442	0.539	0.543	0.595	0.595
LU99A	0.566	0.589	0.596	0.585	0.605	0.495	0.473	0.455	0.419	0.89	0.86	0.754	0.83	0.797	0.3	0.263	0.27	0.345	0.301
NCI-H1355	0.484	0.495	0.416	0.432	0.454		0.79	0.735	0.716	0.895	1.01	1.12	0.951	0.703	0.379	0.44	0.43	0.351	0.317
NCI-H838	0.488	0.485	0.654	0.456	0.331	0.944	1.01	1.1	0.9	1.06	0.981	1.05	0.954	0.91	0.379	0.394	0.388	0.342	0.354
SK-MES-1	0.588	0.625	0.582	0.554	0.551	1.01	1.01	1.12	1.02	0.885	1.02	0.905	0.852	0.837	0.711	0.666	0.562	0.67	0.419
NCI-H460	0.0954	0.101	0.201	0.108	0.151	0.468	0.774	0.731	0.58	1.18	1.11	0.972	1	0.569	0.36	0.755	0.377	0.868	0.462
HCC-78	0.916	1.27	0.972	0.728	0.628		0.551	0.417	0.271	0.649	0.629	0.579	0.498	0.52	0.42	0.405	0.397	0.381	0.326
NCI-H358	0.13	0.149	0.131	0.135	0.14	0.513	0.782	0.808	0.763	0.672	0.558	0.697	0.624	0.53	0.787	0.724	0.758	0.779	0.736
H3255	0.57	0.676		0.782	0.526	0.78	0.879	0.878	0.854	0.715	0.803	0.738	0.844	1.07	0.684	0.599	0.671	0.553	0.532
NCI-H2023	0.364	0.584	0.708	0.535	0.466	0.612	0.614	0.627	0.625	0.838	0.939	0.763	0.903	0.76	0.32	0.441	0.404	0.382	0.317
NCI-H1944	0.459	0.396	0.357	0.423	0.434	0.976	1.11	1.1	0.895	0.88	0.863	0.987	0.935	0.904	0.39	0.436	0.336	0.367	0.4
LOU-NH91	0.778	0.865	0.794	0.753	0.705		0.927	0.973	0.88	0.942	0.96	0.92	0.914	0.868	0.765	0.721	0.71	0.727	0.69
NCI-H2347	0.287	0.304	0.243	0.255	0.286	0.832	0.92	0.876	0.906	0.845	0.923	0.951	1.01	0.735	0.454	0.572	0.348	0.419	0.378

Cell Line	relative viability ([1]; first compound 0.08 µM)	relative viability ([1]; first compound 0.253 µM)	relative viability ([1]; first compound 0.8 µM)	relative viability ([1]; first compound 2.53 µM)	relative viability ([1]; first compound 8 µM)	relative viability ([2]; first compound 0.08 µM)	relative viability ([2]; first compound 0.253 µM)	relative viability ([2]; first compound 0.8 µM)	relative viability ([2]; first compound 2.53 µM)	relative viability ([3]; first compound 0.08 µM)	relative viability ([3]; first compound 0.253 µM)	relative viability ([3]; first compound 0.8 µM)	relative viability ([3]; first compound 2.53 µM)	relative viability ([3]; first compound 8 µM)	relative viability ([4]; first compound 0.08 µM)	relative viability ([4]; first compound 0.253 µM)	relative viability ([4]; first compound 0.8 µM)	relative viability ([4]; first compound 2.53 µM)	relative viability ([4]; first compound 8 µM)
CAL-12T	0.378	0.381	0.312	0.333	0.27	0.55	0.69	0.835	0.859	0.951	1.13	1.2	1.19	1.01	0.589	1.14	0.591	0.59	0.431
RERF-LC-KJ	0.988	0.908	0.917	0.878	0.834	0.952	0.77	0.897	0.824	0.917	0.996	0.902	0.914	0.778	0.562	0.755	0.561	0.551	0.457
NCI-H650	1.11	1.01	0.991	1.02	0.987		0.853	0.563	0.439	1.11	1.07	0.952	1.04	1.05	0.474	0.469	0.501	0.587	0.58
NCI-H1395		1.02	0.974	0.938	1.01		1.2	1.05	1.04	0.867	0.964	0.991	1.01	1	0.501	0.647	0.637	0.644	0.576
COR-L 105	0.466	0.46	0.482	0.444	0.408	0.761	0.92	1.1	1.11	1.24	1.33	0.997	0.943	0.994	0.72	0.737	0.734	0.628	0.602
COR-L23	0.669	0.716	0.76	0.552	0.521	0.726	0.854	0.897	0.543	0.966	1.08	1.13	1.07	0.909	0.614	0.715	0.534	1.11	0.723
LXF-289	0.682	0.695	0.656	0.722	0.755	0.93	0.956	0.966	0.962	0.999	0.959	0.993	1.05	1.04	0.666	0.801	0.778	0.865	0.732
PC-14	0.758	0.925	0.912	0.792	0.623	0.928	0.897	0.907	0.763	0.887	1.24	0.911	1.03	0.826	0.924	0.986	0.874	0.978	0.46
EKVX	0.358	0.436	0.462	0.378	0.318		1.01	0.921	1.15	0.882	0.828	0.799	0.831	0.743	0.777	0.775	0.71	0.724	0.509
NCI-H322M	0.501	0.464	0.548	0.539	0.503		0.865	1.01	0.968	1.01	1.02	0.935	1.02	0.954	0.59	0.489	0.502	0.576	0.514
NCI-H520	0.5	0.733	0.779	0.613	0.443		0.991	1.02	0.869	0.515	0.711	0.835	0.848	0.627	0.174	0.192	0.237	0.304	0.233
LC-2-ad	0.899	0.942	0.909	0.98	0.807	0.799	0.834	0.825	0.684	0.877	1.06	0.96	0.968	0.753	0.778	0.951	0.822	0.743	0.759
NCI-H596	0.73	0.827	0.891	0.695	0.747	1.09	1.05	1	1.09	1.01	0.783	0.79	1.03	0.824	0.55	0.722	0.692	0.732	0.553
LCLC-97TM1	0.23	0.239	0.247	0.168	0.232	0.171	0.199	0.231	0.172	0.827	1.16	1.01	1.03	0.91	0.406	1.02	0.72	0.707	0.425
NCI-H1437	0.485	0.606	0.534	0.518	0.298	0.805	1.03	0.98	0.647	1.24	1.32	1.36	1.37	1.1	0.869	1.05	0.868	0.873	0.703
NCI-H1915	0.304	0.303	0.505	0.314	0.316	1.01	1.04	1.02	1.01	1.12	1.24		1.08	0.747	0.645	0.622		0.657	0.534
NCI-H441	0.35	0.443	0.431	0.496	0.362	0.478	0.62	0.624	0.396	1.07	1.15	1	1.27	0.976	0.647	0.669	0.565	0.822	0.646
